Laboratory results reported in patent EP2951180B1, “2,6,7,8 SUBSTITUTED PURINES AS HDM2 INHIBITORS” (Merck Sharp & Dohme Corp., priority 2013, dated 2014).

Molecular target: T1, HDM2 (Homo sapiens, UniProt Q00987)
T1 construct: Thioredoxin (N); made in house; host or cells: E. coli strain BL21(DE3)Rosetta
Test: HDM2 FRET assay (inhibition of binding of FITC labeled p53-pocket peptide to HDM2)
Conditions: 0.5 nM HDM2 (residues 17 to 125), 3nM peptide, two hour incubation at room temperature; read-out: FRET IC50
How it was run: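 TR-FRET with 0.5 nM His-tagged recombinant HDM2, 3 nM FITC-labelled p53 peptide and 0.25 nM Tb-anti-His antibody in PBS, 0.01% BSA, 0.01% Tween-20, 0.1% DMSO. IC50 from em520/em495 ratio over 10-point dilutions, 4-parameter logistic fit.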

T1 sequence (Q00987 17-125): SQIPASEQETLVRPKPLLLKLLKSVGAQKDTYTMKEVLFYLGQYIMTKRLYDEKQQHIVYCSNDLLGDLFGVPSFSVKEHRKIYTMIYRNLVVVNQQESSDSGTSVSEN

Compound `C[C@H]1COCCN1c1nc2nc(-c3noc(=O)[nH]3)nc(-c3cccc(Cl)c3)c2n1C[C@H]1CC[C@H](C)CC1` [Example 16.2, 3-(6-(3-chlorophenyl)-7-(((trans)-4-methylcyclohexyl)methyl)-8-((S)-3-methylmorpholino)-7H-purin-2-yl)-1,2,4-oxadiazol-5(4H)-one] has an IC50 of 106 nM.
`Cc1cccc(-c2nc(-c3n[nH]c(=O)o3)nc3nc(N4CCOCC4)n(C[C@H]4CC[C@H](C)CC4)c23)c1` [Example 16.3, 5-(7-(((trans)-4-methylcyclohexyl)methyl)-8-morpholino-6-(m-tolyl)-7H-purin-2-yl)-1,3,4-oxadiazol-2(3H)-one] gave an IC50 of 563 nM.
Compound `C[C@H](CO)Nc1nc2nc(-c3noc(=O)[nH]3)nc(-c3cccc(Cl)c3)c2n1C[C@H]1CC[C@H](C)CC1` [Example 16.4, 3-(6-(3-chlorophenyl)-8-(((R)-1-hydroxypropan-2-yl)amino)-7-(((trans)-4-methylcyclohexyl)methyl)-7H-purin-2-yl)-1,2,4-oxadiazol-5(4H)-one] has an IC50 of 29.8 nM.
With `C[C@](CO)(Nc1nc2nc(-c3noc(=O)[nH]3)nc(-c3cccc(Cl)c3)c2n1C[C@H]1CC[C@H](C)CC1)c1ccccc1` [Example 16.5, 3-(6-(3-chlorophenyl)-8-(((S)-1-hydroxy-2-phenylpropan-2-yl)amino)-7-(((trans)-4-methylcyclohexyl)methyl)-7H-purin-2-yl)-1,2,4-oxadiazol-5(4H)-one] the IC50 was 1.59 nM.
For `C[C@@H]1COCCN1c1nc2nc(-c3noc(=O)[nH]3)nc(-c3cccc(Cl)c3)c2n1C[C@H]1CC[C@H](C)CC1` [Example 16.6, 3-(6-(3-chlorophenyl)-7-(((trans)-4-methylcyclohexyl)methyl)-8-((R)-3-methylmorpholino)-7H-purin-2-yl)-1,2,4-oxadiazol-5(4H)-one], the IC50 was 8.05 nM.
In the case of `C[C@@H]1COCCN1c1nc2nc(-c3n[nH]c(=O)o3)nc(-c3cccc(Cl)c3)c2n1C[C@H]1CC[C@H](C)CC1` [Example 16.7, 5-(6-(3-chlorophenyl)-7-(((trans)-4-methylcyclohexyl)methyl)-8-((R)-3-methylmorpholino)-7H-purin-2-yl)-1,3,4-oxadiazol-2(3H)-one], the IC50 is reported as 14.5 nM.
`C[C@H](O)[C@H](Nc1nc2nc(-c3noc(=O)[nH]3)nc(-c3cccc(Cl)c3)c2n1C[C@H]1CC[C@H](C)CC1)c1ccccc1` [Example 16.8, 3-(6-(3-chlorophenyl)-8-(((1R,2S)-2-hydroxy-1-phenylpropyl)amino)-7-(((trans)-4-methylcyclohexyl)methyl)-7H-purin-2-yl)-1,2,4-oxadiazol-5(4H)-one] was tested, and the IC50 was 1.49 nM.
Compound `C[C@@H]1OC(=O)N(c2nc3nc(-c4noc(=O)[nH]4)nc(-c4cccc(Cl)c4)c3n2C[C@H]2CC[C@H](C)CC2)[C@@H]1c1ccccc1` [Example 16.9, 3-(6-(3-chlorophenyl)-8-((4R,5S)-5-methyl-2-oxo-4-phenyloxazolidin-3-yl)-7-(((trans)-4-methylcyclohexyl)methyl)-7H-purin-2-yl)-1,2,4-oxadiazol-5(4H)-one] has an IC50 of 3.01 nM.
`C[C@@H]1COCCN1c1nc2nc(-c3noc(=O)[nH]3)nc(-c3cncc(Cl)c3)c2n1C[C@H]1CC[C@H](C)CC1` [Example 16.10, 3-(6-(5-chloropyridin-3-yl)-7-(((trans)-4-methylcyclohexyl)methyl)-8-((R)-3-methylmorpholino)-7H-purin-2-yl)-1,2,4-oxadiazol-5(4H)-one] was tested, and the IC50 was 18.1 nM.
`C[C@@H]1COCCN1c1nc2nc(-c3n[nH]c(=O)o3)nc(-c3cncc(Cl)c3)c2n1C[C@H]1CC[C@H](C)CC1` [Example 16.11, 5-(6-(5-chloropyridin-3-yl)-7-(((trans)-4-methylcyclohexyl)methyl)-8-((R)-3-methylmorpholino)-7H-purin-2-yl)-1,3,4-oxadiazol-2(3H)-one] showed an IC50 of 27.7 nM.
For `C[C@H]1CC[C@H](Cn2c(N3CCOC[C@H]3c3ccccc3)nc3nc(-c4noc(=O)[nH]4)nc(-c4ccccc4)c32)CC1` [Example 16.12, 3-(7-(((trans)-4-methylcyclohexyl)methyl)-6-phenyl-8-((R)-3-phenylmorpholino)-7H-purin-2-yl)-1,2,4-oxadiazol-5(4H)-one], the IC50 was 10.1 nM.
Work on `CC(C)c1ccnc(-c2nc3nc(C(=O)O)nc(-c4ccc(F)cc4)c3n2C[C@H]2CC[C@H](C)CC2)c1` [Example 16.13, 6-(4-fluorophenyl)-7-[(trans-4-methylcyclohexyl)methyl]-8-[4-(1-methylethyl)pyridin-2-yl]-7H-purine-2-carboxylic acid] yielded an IC50 of 401 nM.
In the case of `Cc1cccc(-c2nc(C(=O)O)nc3nc(-c4cc(C(C)C)ccn4)n(C[C@H]4CC[C@H](C)CC4)c23)c1` [Example 16.14, 7-[(trans-4-methylcyclohexyl)methyl]-8-[4-(1-methylethyl)pyridin-2-yl]-6-(3-methylphenyl)-7H-purine-2-carboxylic acid], the IC50 is reported as 35.5 nM.
With `Cc1cccc(-c2nc(-c3noc(=O)[nH]3)nc3nc(-c4cc(C(C)C)ccn4)n(C[C@H]4CC[C@H](C)CC4)c23)c1` [Example 16.15, 3-{7-[(trans-4-methylcyclohexyl)methyl]-8-[4-(1-methylethyl)pyridin-2-yl]-6-(3-methylphenyl)-7H-purin-2-yl}-1,2,4-oxadiazol-5(4H)-one] the IC50 was 30 nM.
`CC(C)c1ccnc(-c2nc3nc(-c4noc(=O)[nH]4)nc(-c4cccc(Cl)c4)c3n2C[C@H]2CC[C@H](C)CC2)c1` [Example 16.16, 3-{6-(3-chlorophenyl)-7-[(trans-4-methylcyclohexyl)methyl]-8-[4-(1-methylethyl)pyridin-2-yl]-7H-purin-2-yl}-1,2,4-oxadiazol-5(4H)-one] gave an IC50 of 11.4 nM.
`Cc1cccc(-c2nc(-c3noc(=O)[nH]3)nc3nc(N4CCOC[C@H]4c4ccccc4)n(C[C@H]4CC[C@H](C)CC4)c23)c1` [Example 16.17, 3-{7-[(trans-4-methylcyclohexyl)methyl]-6-(3-methylphenyl)-8-[(3R)-3-phenylmorpholin-4-yl]-7H-purin-2-yl}-1,2,4-oxadiazol-5(4H)-one] showed an IC50 of 3.96 nM.
`C[C@H]1CC[C@H](Cn2c(N3CCOC[C@H]3c3ccccc3)nc3nc(-c4noc(=O)[nH]4)nc(-c4cccc(Cl)c4)c32)CC1` [Example 16.18, 3-{6-(3-chlorophenyl)-7-[(trans-4-methylcyclohexyl)methyl]-8-[(3R)-3-phenylmorpholin-4-yl]-7H-purin-2-yl}-1,2,4-oxadiazol-5(4H)-one] gave an IC50 of 1.27 nM.
Compound `C[C@H]1CC[C@H](Cn2c(N3CCOC[C@H]3c3ccccc3)nc3nc(-c4noc(=O)[nH]4)nc(-c4cc(Cl)cc(Cl)c4)c32)CC1` [Example 16.19, 3-{6-(3,5-dichlorophenyl)-7-[(trans-4-methylcyclohexyl)methyl]-8-[(3R)-3-phenylmorpholin-4-yl]-7H-purin-2-yl}-1,2,4-oxadiazol-5(4H)-one] has an IC50 of 0.995 nM.
`C[C@H]1CC[C@H](Cn2c(N3CCOC[C@H]3c3ccccc3)nc3nc(-c4noc(=O)[nH]4)nc(-c4cc(F)cc(Cl)c4)c32)CC1` [Example 16.20, 3-{6-(3-chloro-5-fluorophenyl)-7-[(trans-4-methylcyclohexyl)methyl]-8-[(3R)-3-phenylmorpholin-4-yl]-7H-purin-2-yl}-1,2,4-oxadiazol-5(4H)-one] was tested, and the IC50 was 1.21 nM.
With `C[C@H]1CC[C@H](Cn2c(N3CCOC[C@H]3c3ccccc3)nc3nc(-c4n[nH]c(=O)o4)nc(-c4cccc(Cl)c4)c32)CC1` [Example 16.21, 5-{6-(3-chlorophenyl)-7-[(trans-4-methylcyclohexyl)methyl]-8-[(3R)-3-phenylmorpholin-4-yl]-7H -purin-2-yl}-1,3,4-oxadiazol-2(3H)-one] the IC50 was 2.25 nM.
`C[C@H]1CC[C@H](Cn2c(N3CCOC[C@H]3c3ccccc3)nc3nc(C(=O)O)nc(-c4cccc(Cl)c4)c32)CC1` [Example 16.22, 6-(3-chlorophenyl)-7-[(trans-4-methylcyclohexyl)methyl]-8-[(3R)-3-phenylmorpholin-4-yl]-7H-purine-2-carboxylic acid] gave an IC50 of 0.68 nM.
Compound `C[C@H]1CC[C@H](Cn2c(N3CCOC[C@H]3c3ccccc3)nc3nc(-c4noc(=O)[nH]4)nc(-c4cccc(Cl)c4F)c32)CC1` [Example 16.23, 3-{6-(3-chloro-2-fluorophenyl)-7-[(trans-4-methylcyclohexyl)methyl]-8-[(3R)-3-phenylmorpholin-4-yl]-7H-purin-2-yl}-1,2,4-oxadiazol-5(4H)-one] has an IC50 of 1.44 nM.
For `C[C@H]1CC[C@H](Cn2c(N3CCOC[C@H]3c3ccccc3)nc3nc(-c4noc(=O)[nH]4)nc(-c4ccc(F)c(Cl)c4)c32)CC1` [Example 16.24, 3-{6-(3-chloro-4-fluorophenyl)-7-[(trans-4-methylcyclohexyl)methyl]-8-[(3R)-3-phenylmorpholin-4-yl]-7H-purin-2-yl}-1,2,4-oxadiazol-5(4H)-one], the IC50 was 5.62 nM.
Compound `C[C@H]1CC[C@H](Cn2c(N3CCOC[C@H]3c3ccccc3)nc3nc(-c4noc(=O)[nH]4)nc(-c4cc(Cl)ccc4F)c32)CC1` [Example 16.25, 3-{6-(5-chloro-2-fluorophenyl)-7-[(trans-4-methylcyclohexyl)methyl]-8-[(3R)-3-phenylmorpholin-4-yl]-7H-purin-2-yl} -1,2,4-oxadiazol-5(4H)-one] has an IC50 of 1.63 nM.
`C[C@H]1CC[C@H](Cn2c(N3CCOC[C@H]3c3ccccc3)nc3nc(-c4noc(=O)[nH]4)nc(-c4cncc(Cl)c4)c32)CC1` [Example 16.26, 3-{6-(5-chloropyridin-3-yl)-7-[(trans-4-methylcyclohexyl)methyl]-8-[(3R)-3-phenylmorpholin-4-yl]-7H-purin-2-yl}-1,2,4-oxadiazol-5(4H)-one] gave an IC50 of 0.517 nM.
`Cc1cccc(-c2nc(-c3noc(=O)[nH]3)nc3nc(N4CCOCC4)n(C[C@H]4CC[C@H](C)CC4)c23)c1` [Example 16.27, 3-{7-[(trans-4-methylcyclohexyl)methyl]-6-(3-methylphenyl)-8-morpholin-4-yl-7H-purin-2-yl}-1,2,4-oxadiazol-5(4H)-one] was tested, and the IC50 was 334 nM.
